From PubChem BioAssay AID1259407 (Chemical Carcinogenesis Research Information System (CCRIS), 2018)
Calls of active or inactive are those of the source. The rule behind the calls is not given here.

Tested on: CCRIS mutagenicity, Ames/micronucleus/aberration tests
Test: CCRIS mutagenicity studies
[1] = Test System: AMES SALMONELLA TYPHIMURIUM, Strain/Indicator: TA98, Metabolic Activation: NONE, Method: STANDARD PLATE
[2] = Test System: AMES SALMONELLA TYPHIMURIUM, Strain/Indicator: TA98, Metabolic Activation: RAT, LIVER, S-9, AROCLOR 1254, Method: STANDARD PLATE
[3] = Test System: AMES SALMONELLA TYPHIMURIUM, Strain/Indicator: TA100, Metabolic Activation: NONE, Method: STANDARD PLATE
[4] = Test System: AMES SALMONELLA TYPHIMURIUM, Strain/Indicator: TA100, Metabolic Activation: RAT, LIVER, S-9, AROCLOR 1254, Method: STANDARD PLATE
[5] = Test System: AMES SALMONELLA TYPHIMURIUM, Strain/Indicator: TA102, Metabolic Activation: NONE, Method: PREINCUBATION
[6] = Test System: AMES SALMONELLA TYPHIMURIUM, Strain/Indicator: TA102, Metabolic Activation: RAT, LIVER, S-9, AROCLOR 1254, Method: PREINCUBATION

## Clc1cncc(Cl)c1
Test System: AMES SALMONELLA TYPHIMURIUM, Strain/Indicator: TA97, Metabolic Activation: NONE, Method: STANDARD PLATE
  mutagenic call: inactive; negative
Test System: AMES SALMONELLA TYPHIMURIUM, Strain/Indicator: TA97, Metabolic Activation: RAT, LIVER, S-9, AROCLOR 1254, Method: STANDARD PLATE
  mutagenic call: inactive; negative
[1]
  mutagenic call: inactive; negative
[2]
  mutagenic call: inactive; negative
[3]
  mutagenic call: inactive; negative
[4]
  mutagenic call: inactive; negative
Test System: AMES SALMONELLA TYPHIMURIUM, Strain/Indicator: TA102, Metabolic Activation: NONE, Method: STANDARD PLATE
  mutagenic call: inactive; negative
Test System: AMES SALMONELLA TYPHIMURIUM, Strain/Indicator: TA102, Metabolic Activation: RAT, LIVER, S-9, AROCLOR 1254, Method: STANDARD PLATE
  mutagenic call: inactive; negative

## CC(C)CC=O
Test System: AMES SALMONELLA TYPHIMURIUM, Strain/Indicator: TA98, Metabolic Activation: NONE, Method: PREINCUBATION
  mutagenic call: inactive; negative
Test System: AMES SALMONELLA TYPHIMURIUM, Strain/Indicator: TA98, Metabolic Activation: RAT, LIVER, S-9, AROCLOR 1254, Method: PREINCUBATION
  mutagenic call: inactive; negative
Test System: AMES SALMONELLA TYPHIMURIUM, Strain/Indicator: TA100, Metabolic Activation: NONE, Method: PREINCUBATION
  mutagenic call: inactive; negative
Test System: AMES SALMONELLA TYPHIMURIUM, Strain/Indicator: TA100, Metabolic Activation: RAT, LIVER, S-9, AROCLOR 1254, Method: PREINCUBATION
  mutagenic call: inactive; negative
[5]
  mutagenic call: inactive; negative
[6]
  mutagenic call: inactive; negative

## Cc1cc(O)c2c(c1O)C(=O)c1cccc(O)c1C2=O
Test System: UDS RODENT HEPATOCYTES, Strain/Indicator: THY INCORP, Metabolic Activation: NONE, Method: AUTORADIOGRAPHY
  mutagenic call: inactive; negative

## CC(C)COC(=O)Cc1ccccc1
Test System: AMES SALMONELLA TYPHIMURIUM, Strain/Indicator: TA97, Metabolic Activation: NONE, Method: PREINCUBATION
  mutagenic call: inactive; negative
Test System: AMES SALMONELLA TYPHIMURIUM, Strain/Indicator: TA97, Metabolic Activation: RAT, LIVER, S-9, AROCLOR 1254, Method: PREINCUBATION
  mutagenic call: inactive; negative
[5]
  mutagenic call: inactive; negative
[6]
  mutagenic call: inactive; negative

## COCC(O)Cn1ccnc1[N+](=O)[O-] (centres undefined)
Test System: E. COLI, Strain/Indicator: WP2 UVRA, Metabolic Activation: NONE, Method: STANDARD PLATE
  mutagenic call: active; positive

## CC(C)(O)CCc1ccc(O)c2c(=O)c3c(O)c4c(cc3oc12)O[C@H]1OC=C[C@@H]41
[1]
  mutagenic call: active; positive
[2]
  mutagenic call: active; positive
[3]
  mutagenic call: active; positive
[4]
  mutagenic call: active; positive
